Results taken from US20250179059A1 (The Regents of the University of California, priority 2021, published 2025).

How the values were obtained:
[1] = target: T1, human BRD4 bromodomain II (Homo sapiens, UniProt O60885); assay: Bromodomain binding assay (AlphaScreen), BRD4 BDII; conditions: AlphaScreen assay, Table C2; read-out: BRD4 BDII IC50
T1 construct: human BRD4 bromodomain II [based on Genbank NM_058243, residues 349-460]; host or cells: E. coli
Outline: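 Tagged BRD4 BDI or BDII constructs, expressed in E. coli, competed against a K5/K8/K12/K16-acetylated biotin-H4 peptide. Proximity signal between bead pairs after room-temperature incubations gave concentration-response curves, from which IC50 was derived.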

[2] = system: human SKM-1 acute myeloid leukemia cells; assay: SKM-1 antiproliferation cell-based assay (ATPlite); conditions: Homo sapiens, SKM-1, 96 h, SKM-1 antiproliferation assay, 4 days, Table C2
Outline: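 Log-phase cells in RPMI 1640/15% FBS were seeded at 34722 cells/mL and exposed for 4 days to nine-concentration DMSO serial dilutions in triplicate. Viability was read as ATP luminescence (ATPlite 1step), and IC50 values came from variable-slope non-linear regression.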

IC50 [1] [nM]	GI50 [2] [nM]	Structure (SMILES)
1 to 10	30 to 300	CN1CCN(c2ccc(-c3cc(F)cc(-c4ccnc(N5CCC[C@H](N)C5)c4)c3O)cc2Cl)C1=O [Example 360, (S)-1-(3′-(2-(3-aminopiperidin-1-yl)pyridin-4-yl)-3-chloro-5′-fluoro-2′-hydroxy-[1,1′-biphenyl]-4-yl)-3-methylimidazolidin-2-one]
10 to 100	30 to 300	CC(=O)Nc1ccc(-c2cccc(-c3cc(OC4CCC(O)CC4)nc(N4CCNCC4)c3)c2O)cc1F (stereo not drawn) [Example 361, N-(3-fluoro-2′-hydroxy-3′-(2-((4-hydroxycyclohexyl)oxy)-6-(piperazin-1-yl)pyridin-4-yl)-[1,1′-biphenyl]-4-yl)acetamide]
1 to 10	30 to 300	Cc1cc(-c2ccnc(N3CC[C@H](N)C3)c2)c(O)c(-c2ccc(N3CCN(C)C3=O)c(Cl)c2)c1 [Example 362, (S)-1-(3′-(2-(3-aminopyrrolidin-1-yl)pyridin-4-yl)-3-chloro-2′-hydroxy-5′-methyl-[1,1′-biphenyl]-4-yl)-3-methylimidazolidin-2-one]
10 to 100	300 to 3000	CN1CCN(c2ccc(-c3cc(F)cc(-c4ccnc(NCCN)c4)c3O)cc2Cl)C1=O [Example 363, 1-(3′-(2-((2-aminoethyl)amino)pyridin-4-yl)-3-chloro-5′-fluoro-2′-hydroxy-[1,1′-biphenyl]-4-yl)-3-methylimidazolidin-2-one]
> 100	≥ 3000	CC(C)N1CCN(c2ccc(-c3cc(F)cc(-c4ccnc(N5CCNCC5)c4)c3O)cc2Cl)C1=O [Example 364, 1-(3-chloro-5′-fluoro-2′-hydroxy-3′-(2-(piperazin-1-yl)pyridin-4-yl)-[1,1′-biphenyl]-4-yl)-3-isopropylimidazolidin-2-one]
1 to 10	30 to 300	CC1=CCN(c2ccc(-c3cc(F)cc(-c4ccnc(N5CCNCC5)c4)c3O)cc2Cl)C1=O [Example 366, 1-(3-chloro-5′-fluoro-2′-hydroxy-3′-(2-(piperazin-1-yl)pyridin-4-yl)-[1,1′-biphenyl]-4-yl)-3-methyl-1,5-dihydro-2H-pyrrol-2-one]
> 100	300 to 3000	C#CCN1CCN(c2ccc(-c3cc(F)cc(-c4ccnc(N5CCNCC5)c4)c3O)cc2Cl)C1=O [Example 367, 1-(3-chloro-5′-fluoro-2′-hydroxy-3′-(2-(piperazin-1-yl)pyridin-4-yl)-[1,1′-biphenyl]-4-yl)-3-(prop-2-yn-1-yl)imidazolidin-2-one]
1 to 10	30 to 300	CN1CCN(c2ccc(-c3cccc(-c4cc(C5CC5)nc(N5CCNCC5)c4)c3O)cc2Cl)C1=O [Example 368, 1-(3-chloro-3′-(2-cyclopropyl-6-(piperazin-1-yl)pyridin-4-yl)-2′-hydroxy-[1,1′-biphenyl]-4-yl)-3-methylimidazolidin-2-one]
10 to 100	≥ 3000	CN1CCN(c2ccc(-c3cccc(-c4ccc5[nH]c6c(c5c4)CNCC6)c3O)cc2Cl)C1=O [Example 369, 1-(3-chloro-2′-hydroxy-3′-(2,3,4,5-tetrahydro-1H-pyrido[4,3-b]indol-8-yl)-[1,1′-biphenyl]-4-yl)-3-methylimidazolidin-2-one]
1 to 10	30 to 300	CC(=O)NCc1ncc(-c2cc(F)cc(-c3ccc(N4CCN(C)C4=O)c(Cl)c3)c2O)cc1N1CCNCC1 [Example 370, N-((5-(3′-chloro-5-fluoro-2-hydroxy-4′-(3-methyl-2-oxoimidazolidin-1-yl)-[1,1′-biphenyl]-3-yl)-3-(piperazin-1-yl)pyridin-2-yl)methyl)acetamide]
10 to 100	300 to 3000	O=C1OCCN1c1ccc(-c2cc(F)cc(-c3ccnc(N4CCNCC4)c3)c2O)cc1Cl [Example 371, 3-(3-chloro-5′-fluoro-2′-hydroxy-3′-(2-(piperazin-1-yl)pyridin-4-yl)-[1,1′-biphenyl]-4-yl)oxazolidin-2-one]

Continued, compound first:

Structure (SMILES)	IC50 [1] [nM]	GI50 [2] [nM]
CN1CCN(c2ccc(-c3cc(F)cc(-c4ccnc(N5CCC(N)CC5)c4)c3O)cc2Cl)C1=O [Example 350, 1-(3′-(2-(4-aminopiperidin-1-yl)pyridin-4-yl)-3-chloro-5′-fluoro-2′-hydroxy-[1,1′-biphenyl]-4-yl)-3-methylimidazolidin-2-one]	10 to 100	30 to 300
CC(=O)Nc1ccc(-c2cccc(-c3cc(OC4CC4)nc(N4CCNCC4)c3)c2O)cc1F [Example 351, N-(3′-(2-cyclopropoxy-6-(piperazin-l-yl)pyridin-4-yl)-3-fluoro-2′-hydroxy-[1,1′-biphenyl]-4-yl)acetamide]	10 to 100	300 to 3000
CN1CCN(c2ccc(-c3cc(F)cc(-c4ccnc(N5CC6(CNC6)C5)c4)c3O)cc2Cl)C1=O [Example 352, 1-(3′-(2-(2,6-diazaspiro[3.3]heptan-2-yl)pyridin-4-yl)-3-chloro-5′-fluoro-2′-hydroxy-[1,1′-biphenyl]-4-yl)-3-methylimidazolidin-2-one]	10 to 100	300 to 3000
CN1CCN(c2ccc(-c3cc(F)cc(-c4ccnc(N5CC[C@H](N)C5)c4)c3O)cc2Cl)C1=O [Example 353, (S)-1-(3′-(2-(3-aminopyrrolidin-1-yl)pyridin-4-yl)-3-chloro-5′-fluoro-2′-hydroxy-[1,1′-biphenyl]-4-yl)-3-methylimidazolidin-2-one]	1 to 10	30 to 300
CN1CCN(c2ccc(-c3cc(F)cc(-c4ccnc(N5CCNC5=O)c4)c3O)cc2Cl)C1=O [Example 354, 1-(3-chloro-5′-fluoro-2′-hydroxy-3′-(2-(2-oxoimidazolidin-1-yl)pyridin-4-yl)-[1,1′-biphenyl]-4-yl)-3-methylimidazolidin-2-one]	> 100	≥ 3000
CN1CCN(c2ccc(-c3cccc(-c4cc(CO)cc(N5CCNCC5)c4)c3O)cc2Cl)C1=O [Example 355, 1-(3-chloro-2′-hydroxy-3″-(hydroxymethyl)-5″-(piperazin-1-yl)-[1,1′:3′,1″-terphenyl]-4-yl)-3-methylimidazolidin-2-one]	1 to 10	30 to 300
CC1=CCN(c2ccc(-c3cccc(-c4ccnc(N5CCNCC5)c4)c3O)cc2Cl)C1=O [Example 356, 1-(3-chloro-2′-hydroxy-3′-(2-(piperazin-1-yl)pyridin-4-yl)-[1,1′-biphenyl]-4-yl)-3-methyl-1H-pyrrol-2(5H)-one]	1 to 10	30 to 300
CN1CCN(c2ccc(-c3cc(F)cc(-c4cnc(C#N)c(N5CCNCC5)c4)c3O)cc2Cl)C1=O [Example 357, 5-(3′-chloro-5-fluoro-2-hydroxy-4′-(3-methyl-2-oxoimidazolidin-1-yl)-[1,1′-biphenyl]-3-yl)-3-(piperazin-1-yl)picolinonitrile]	1 to 10	30 to 300
CN1CCN(c2ccc(-c3cc(F)cc(-c4ccc(CO)c(N5CCNCC5)c4)c3O)cc2Cl)C1=O [Example 358, 1-(3-chloro-5′-fluoro-2′-hydroxy-4″-(hydroxymethyl)-3″-(piperazin-1-yl)-[1,1′:3′,1″-terphenyl]-4-yl)-3-methylimidazolidin-2-one]	1 to 10	30 to 300
C[C@@H]1CN(c2cc(-c3cc(F)cc(-c4ccc(N5CCN(C)C5=O)c(Cl)c4)c3O)ccn2)CCN1 [Example 359, (R)-1-(3-chloro-5′-fluoro-2′-hydroxy-3′-(2-(3-methylpiperazin-1-yl)pyridin-4-yl)-[1,1′-biphenyl]-4-yl)-3-methylimidazolidin-2-one]	1 to 10	30 to 300
